Experiments:
[1] = UV-vis absorption, fluorescence emission, absolute fluorescence quantum yield and fluorescence lifetime; assay type: physicochemical; conditions: for Δλ, Stokes shift / λem, maximum emission wavelength / τS, fluorescence lifetime: in dichloromethane; for UV-vis absorption maximum in PBS: phosphate-buffered solution (PBS); for molar extinction coefficient: at absorption peak about 710 nm, DCM
Experimental: First, the UV–vis absorption and fluorescence emission spectra of the series of compounds were measured and analyzed. […] Concurrently, the Stokes shifts of all four compounds were more than 60 nm (Figure 2a,b and Table 1), which could effectively improve the signal-to-noise ratio (SNR) of fluorescence compared to the ordinary TCy7. The fluorescence lifetimes of all four compounds were within 2 ns, indicating no delayed fluorescence generation (Figure 2c and Table 1). […]
Materials and Instrumentation
All the general chemicals used in this paper are purchased from Energy Chemical Co. and Innochem Chemical Co. unless otherwise specified. All solvents were […]
analytically pure. […]
All the other solvents and reagents used in this study were of analytical grade. All the BALB/c mice were purchased from Liaoning […]
III 500 spectrometers. Absorption and emission spectra for all the compounds were achieved on the Agilent Technologies CARY 60 UV -Vis spectrophotometer and VAEIAN CARY Eclipse fluorescence spectrop hotometer (Serial No. FL0812 -M018), […]
respectively. Unless otherwise specified, all spectroscopic tests were performed in a quartz cell (10×10 mm). Fluorescence quantum yield of all the compounds were measured on the HAMAMATSU absolute fluorescence quantum yield spectrometer (Serial No. C11347). Triplet lifetime of compounds were acquired on LP980 laser flash photolysis spectrometer (Edinburgh Instruments, U.K.). The cell confocal laser scanning microscope (CLSM) images were all obtained by using Olympus FV3000 confocal laser scanning microscope. […]
Figure 4, Figure S6 and Figure S7). The spin-orbital coupling (SOC) values between the S1/S1V and T2 were calculated with ORCA 4.13. Hole-Electron analysis was carried […]
ISC rate constants calculation […]
Triplet lifetime measurements
The triplet life of QTCy7-R was measured by LP980 laser flash photolysis spectrometer (Edinburgh Instruments Ltd.) in combination with a Nd:YAG laser (Surelite I-10, Continuum Electro-Optics, Inc.). The oxygen in the sample was removed by aerating nitrogen for 30 min. The samples (5 μM) were excited by a 610 nm laser pulse (1 Hz, 100 mJ per pulse, fwhm ≈ 7 ns) at 300 K. The triplet state decay kinetics were measured at the maximum absorption wavelengths of each compound.
Fluorescence lifetime and femtosecond time-resolved transient absorption spectra […]
The fluorescence lifetimes and femtosecond time-resolved transient absorption spectra of dyes were recorded on a freshly prepared samples using the time-correlated single photon counting (TCSPC) method (PicoQuant PicoHarp 300) at 300 K. The concentration is 10 μM, solvent is DCM.
Hepatoma carcinoma cells (HepG-2 cells), human mammary carcinoma (MCF-7) and mouse breast cancer cells (4T1) were maintained in Dulbecco’s modified Eagle’s

[2] = tested on: HepG2 cells; assay: Confocal imaging of cellular uptake, subcellular localization and membrane damage; assay type: cell-based, human; conditions: for cell membrane damage on illumination: CLSM, illumination 0-4 min; for cellular distribution / Pearson correlation (colocalization) coefficient with MitoTracker Green: HepG2 cells; for cellular distribution: incubated 90 min; for photostability in cells: fluorescence intensity in cells during light irradiation; for Pearson correlation (colocalization) coefficient with MitoTracker Green: mitochondria
Experimental: In view of QTCy7-R having strong singlet oxygen generation potency and reasonable wavelength, human hepatocellular carcinoma cells were selected for photoactivity experiments in vitro. On account of their low molecular weights and intrinsic positive cationic charge, QTCy7-R could be quickly taken up by cells within 90 min (Figure S19a,b). […] According to our supposition, the enhanced partial cationic charge caused by the introduction of the EWG in QTCy7-Ac or QTCy7-CHO made it easier for them to cling to the cell membrane with negative charge than to cross it.
Next, in order to verify the disruption effect on cell structural integrity of the ^1O2 generation by QTCy7-R under irradiation, JC-1 staining imaging was conducted to monitor the mitochondria membrane potential. […] On the other hand, cell membrane damage caused by the photooxidation of QTCy7-Ac and QTCy7-CHO could be confirmed by a visualized observation. […] Furthermore, the lactate dehydrogenase (LDH) content in cell culture medium was measured to characterize the extent of cell membrane damage.[49] […]
medium (DMEM, Invitrogen) with 10 % fetal bovine serum (Invitrogen) and 1% penicillinstreptomycin. All cells were treated at 37 °C with the humidified atmosphere containing 5% CO2 and 95% air. Before conducting cell imaging experiments, all types of cells were maintained on 35 mm glass-bottom cell dishes for 24 h.
Confocal fluorescence imaging
After culturing the cells in 35 mm glass-bottom cell dishes for 24 h, the DMEM medium was replaced with saline, then QTCy7-R was added (3 μM). The confocal fluorescence imaging was carried out and images were recorded. (λex = 640 nm, λem = 680-780 nm). In the suborganelle localization experiment s, the cells were incubated with 3 μM QTCy7-R for 90 min and then stained with LysoTracker Green DND 26 (200 nM) and MitoTracker Green FM (200 nM), respectively. After fluorescence imaging, colocalization coefficient was analyzed and recorded. (LysoTracker Green DND 26 and MitoTracker Green FM: λex = 488 nm, λem = 500-550 nm). […]

SMILES | ΦF, absolute fluorescence quantum yield [1] [%] | Δλ, Stokes shift [1] [nm] | λem, maximum emission wavelength [1] [nm] | τS, fluorescence lifetime [1] [ns] | UV-vis absorption maximum in PBS [1] [nm] | cell membrane damage on illumination [2] | cellular distribution [2] | photostability in cells [2] | molar extinction coefficient [1] | Pearson correlation (colocalization) coefficient with MitoTracker Green [2]
CCOC(=O)C1=C/C(=C\C=C2/Sc3ccccc3N2CC)C(=O)C(/C=C/c2sc3ccccc3[n+]2CC)=C1 [QTCy7-Ac] | 31.4 | 67 | 703 | 1.97 | 610 | formation of distinct bubblelike structures | effectively adhere to the cell membrane | good photostability |  | 
CCN1/C(=C/C=C2\C=C(C)C=C(/C=C/c3sc4ccccc4[n+]3CC)C2=O)Sc2ccccc21 [QTCy7-Me] | 16.7 | 66 | 780 | 1.70 | 701 |  | could get inside cells |  | approximately 4 × 10^4 | 0.92
CCN1/C(=C/C=C2\C=C(C=O)C=C(/C=C/c3sc4ccccc4[n+]3CC)C2=O)Sc2ccccc21 [QTCy7-CHO] | 28.0 | 60 | 690 | 1.82 | 552 | did not cause severe cell membrane rupture | effectively adhere to the cell membrane | good photostability |  | 
CCN1/C(=C/C=C2\C=C(c3ccccc3)C=C(/C=C/c3sc4ccccc4[n+]3CC)C2=O)Sc2ccccc21 [QTCy7-Ph] | 17.2 | 72 | 783 | 1.90 | 613 |  | could get inside cells |  | approximately 4 × 10^4 | 0.89

Source: article PMC10451034, “Highly Efficient Photosensitizers with Molecular Vibrational Torsion for Cancer Photodynamic Therapy” (ACS Central Science, 2023)
